Results on two molecules are retold here after publication PMC4176347, “Zinc finger oxidation of Fpg/Nei DNA glycosylases by 2-thioxanthine: biochemical and X-ray structural characterization” (Nucleic Acids Research, 2014).

The target in series [1] is T1, hNEIL2 (Homo sapiens, UniProt Q969S2).
T1 construct: gene NEIL2; 6His-hNEIL2 fusion, vector pPR363, expressed in E. coli BL21CodonsPlus; CHC2-type zinc finger
T1 sequence (Q969S2 1-332): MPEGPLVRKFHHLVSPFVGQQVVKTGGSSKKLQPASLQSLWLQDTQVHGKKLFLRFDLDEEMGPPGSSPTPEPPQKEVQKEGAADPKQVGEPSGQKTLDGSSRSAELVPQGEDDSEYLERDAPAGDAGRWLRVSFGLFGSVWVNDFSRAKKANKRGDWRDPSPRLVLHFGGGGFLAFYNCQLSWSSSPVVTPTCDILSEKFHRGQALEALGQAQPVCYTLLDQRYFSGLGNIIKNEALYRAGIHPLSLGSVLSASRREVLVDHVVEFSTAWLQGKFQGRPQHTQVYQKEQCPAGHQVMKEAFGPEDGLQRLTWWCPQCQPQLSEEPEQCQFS
The experiment in a line: PAR assay, 2TX-induced Zn2+ release, A500. It counts as binding. Particulars: free enzyme without DNA; 5 μM enzyme, 10 mM 2TX, 100 μM PAR, 25 mM Hepes/KOH pH 7.5, 70 mM KCl, 8% DMSO, room temperature; covalent. The source says: PAR assay, 2TX-induced Zn2+ release, A500 on hNEIL2

The target in series [2] is T2, LlFpg (Lactococcus cremoris, UniProt P42371).
T2 construct: gene mutM; full-length recombinant from pFlag-CTC-WT-LlFpg, E. coli BH540 (fpg mutY) host, purified to homogeneity; zinc finger C245/C248/C265/C268
T2 sequence (P42371 2-273): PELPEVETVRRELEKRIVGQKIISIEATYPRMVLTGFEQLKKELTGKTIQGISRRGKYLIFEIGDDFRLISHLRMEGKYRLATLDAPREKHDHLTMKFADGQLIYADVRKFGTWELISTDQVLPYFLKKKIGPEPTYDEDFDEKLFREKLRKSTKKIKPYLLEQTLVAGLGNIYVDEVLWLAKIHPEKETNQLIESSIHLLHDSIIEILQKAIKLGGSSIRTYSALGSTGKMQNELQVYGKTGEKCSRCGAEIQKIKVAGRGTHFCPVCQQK
The experiment in a line: PAR assay, 2TX-induced Zn2+ release, A500. The class given is binding. Particulars: free enzyme without DNA; 5 μM enzyme, 10 mM 2TX, 100 μM PAR, 25 mM Hepes/KOH pH 7.5, 70 mM KCl, 8% DMSO, room temperature; covalent. An excerpt: PAR assay, 2TX-induced Zn2+ release, A500 on LlFpg

Series [3] deals with T2, LlFpg. As to the kind of experiment: X-ray crystal structures of LlFpg/DNA treated with 2TX ([…] Å THF-DNA; […] Å Bz-cFapyG-DNA). It counts as binding. To be noted: covalent disulfide to C248 (THF-DNA) or C268 (Bz-cFapyG-DNA); stacks on W179; outside active site; zinc lost.
Series [4] deals with T3, EcNei (Escherichia coli, UniProt P50465).
T3 construct: gene nei; full-length, C-terminal 6His-tag, pET22b derivative, expressed in E. coli BL21(DE3)
The experiment in a line: PAR assay, 2TX-induced Zn2+ release, A500. It counts as binding. Particulars: free enzyme without DNA; 5 μM enzyme, 10 mM 2TX, 100 μM PAR, 25 mM Hepes/KOH pH 7.5, 70 mM KCl, 8% DMSO, room temperature; covalent. The source says:
PAR assay, 2TX-induced Zn2+ release, A500 on EcNei

For series [5], the target named is T1, hNEIL2. As to the kind of experiment: Hyd-DNA glycosylase assay, […]-labelled 24-mer, Urea-PAGE. The class given is biochemical. To be noted: Hyd single-stranded DNA, 30 min, 37°C, 8% DMSO.
Series [6] concerns the target T2, LlFpg. The experiment in a line: 8-oxoG-DNA glycosylase assay, […]-labelled 24-mer, gel. The class given is biochemical. Particulars: 5 nM enzyme, 25 nM 8-oxoG-DNA, 0-250 μM 2TX, 30 min, 37°C, 8% DMSO.
The target of series [7] is T3, EcNei. As to the kind of experiment: Hyd-DNA glycosylase assay, […]-labelled 24-mer, Urea-PAGE. To be noted: Hyd:G double-stranded DNA, 30 min, 37°C, 8% DMSO. It counts as biochemical.
The target in series [8] is T4, LlFpg WT (Lactococcus lactis) (UniProt P42371).
T4 sequence: T2 sequence (P42371 2-273)
As to the kind of experiment: EMSA. Particulars: apparent Kd, N at position 7 of strand 1 = tetrahydrofuran (THF) abasic site analogue, opposite C, EMSA: 0.1 nM 32P-labelled 14-mer THF-DNA, 0-16 nM LlFpg (2 nM in 2TX assays), 20 min at 4 C / on ice, with or without 8% DMSO, buffer and pH as in cited …. (Mobility shift assays separate free from complexed probe on a gel.)

T3 sequence (P50465 2-263): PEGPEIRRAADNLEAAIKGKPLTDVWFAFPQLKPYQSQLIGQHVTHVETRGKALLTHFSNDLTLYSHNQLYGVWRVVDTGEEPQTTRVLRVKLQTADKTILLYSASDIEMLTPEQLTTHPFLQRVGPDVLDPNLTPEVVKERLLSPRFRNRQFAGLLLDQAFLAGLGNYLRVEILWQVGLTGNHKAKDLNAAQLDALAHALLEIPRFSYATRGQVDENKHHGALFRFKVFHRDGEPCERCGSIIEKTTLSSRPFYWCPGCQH

Consider `O=c1[nH]c(=S)[nH]c2nc[nH]c12` [2TX, 2-thioxanthine], for which the entries for the “kobs (min^-1)^a / - DNA” value in series [1], in series [2] and in series [4] were 0.180 ± 0.002 min⁻¹, 0.073 ± 0.001 min⁻¹ and 0.296 ± 0.001 min⁻¹, respectively. Moreover, in series [3], the “X-ray crystal structures of LlFpg/DNA treated with 2TX (2.4 Å THF-DNA); 2.1 Å Bz-” value is “a 2TX molecule covalently bound to C268 was easily modeled in the electron density map”. The “Hyd-DNA glycosylase assay, 32P-labelled 24-mer, Urea-PAGE” value was “The Hyd-DNA glycosylase activity of EcNei and hNEIL2 were also strongly inhibited by 2TX” in series [5]; “The Hyd-DNA glycosylase activity of EcNei and hNEIL2 were also strongly inhibited by 2TX” in series [7]. Also, the “8-oxoG-DNA glycosylase assay, 32P-labelled 24-mer, gel” value in series [6] is given as “excision of 8-oxoG from 24-mer DNA duplex (Supplementary Figure S2) by LlFpg was inhibited”.
As for “CTCTTTNTTTCTCG / GCGAGAAACAAAGA [14-mer THF-DNA]”, the Kd in series [8] (8% DMSO) was 3 nM; in series [8] (without DMSO), 10 nM.
